Assay results taken from paper PMC5218480 (PLoS ONE, 2017).

System: MV-4-11 cells
Assay: Gene expression microarray analysis (Affymetrix PrimeView) and GSEA
Format: cell-based, human
Parameters: RFU PODN (11730768_x_at) / Fold change /veh PODN (11730768_x_at) / RFU LINC00158 (11744669_a_at) / Fold change /veh LINC00158 (11744669_a_at) / RFU DUSP10 (11751237_a_at) / Fold change /veh DUSP10 (11751237_a_at) / RFU ID3 (11757404_x_at) / Fold change /veh ID3 (11757404_x_at) / RFU PLEKHG5 (11737974_s_at) / Fold change /veh PLEKHG5 (11737974_s_at) / RFU LRRC4B (11730491_at) / Fold change /veh LRRC4B (11730491_at) / RFU GIMAP4 (11747438_a_at) / Fold change /veh GIMAP4 (11747438_a_at) / RFU KRT8 (11758183_x_at) / Fold change /veh KRT8 (11758183_x_at) / RFU CNN1 (11734310_a_at) / Fold change /veh CNN1 (11734310_a_at) / RFU VPS37D (11726825_at) / Fold change /veh VPS37D (11726825_at) / RFU C10orf10 (11716522_x_at) / Fold change /veh C10orf10 (11716522_x_at) / RFU KIR2DL2 /// KIR2DL4 /// KIR2DL5A /// KIR2DL5B /// KIR2DS1 /// KIR2DS2 /// KIR2DS3 /// KIR2DS4 /// KIR3DL3 /// KIR3DL3 /// KIR3DS1 (11738374_at) / Fold change /veh KIR2DL2 /// KIR2DL4 /// KIR2DL5A /// KIR2DL5B /// KIR2DS1 /// KIR2DS2 /// KIR2DS3 /// KIR2DS4 /// KIR3DL3 /// KIR3DL3 /// KIR3DS1 (11738374_at) / RFU C1QL1 (11718748_at) / Fold change /veh C1QL1 (11718748_at) / RFU TMPRSS4 (11747572_a_at) / Fold change /veh TMPRSS4 (11747572_a_at) / RFU HAMP (11756126_x_at) / Fold change /veh HAMP (11756126_x_at) / RFU RNFT2 (11725882_a_at) / Fold change /veh RNFT2 (11725882_a_at) / RFU NR4A2 (11747474_a_at) / Fold change /veh NR4A2 (11747474_a_at) / RFU ABCC12 (11746883_a_at) / Fold change /veh ABCC12 (11746883_a_at) / RFU TMEM136 (11760407_x_at) / Fold change /veh TMEM136 (11760407_x_at) / RFU CLDN22 /// WWC2 (11732394_at) / Fold change /veh CLDN22 /// WWC2 (11732394_at) / RFU HLA-DPB1 (11760878_x_at) / Fold change /veh HLA-DPB1 (11760878_x_at) / RFU SPINT1 (11716480_a_at) / Fold change /veh SPINT1 (11716480_a_at) / RFU GAP43 (11754022_s_at) / Fold change /veh GAP43 (11754022_s_at) / RFU A4GNT (11735810_at) / Fold change /veh A4GNT (11735810_at) / RFU PRB3 (11715151_x_at) / Fold change /veh PRB3 (11715151_x_at) / RFU TUBB4B (11761932_at) / Fold change /veh TUBB4B (11761932_at) / RFU CAPN14 (11732068_a_at) / Fold change /veh CAPN14 (11732068_a_at) / RFU TMCC2 (11721928_a_at) / Fold change /veh TMCC2 (11721928_a_at) / RFU IRGQ (11745062_a_at) / Fold change /veh IRGQ (11745062_a_at) / RFU FAM174B (11720279_a_at) / Fold change /veh FAM174B (11720279_a_at) / RFU TMPRSS4 (11748680_a_at) / Fold change /veh TMPRSS4 (11748680_a_at) / RFU FAM212B (11763350_a_at) / Fold change /veh FAM212B (11763350_a_at) / RFU PLEKHG5 (11743358_a_at) / Fold change /veh PLEKHG5 (11743358_a_at) / RFU ZSCAN30 (11745921_a_at) / Fold change /veh ZSCAN30 (11745921_a_at) / RFU CMKLR1 (11741424_a_at) / Fold change /veh CMKLR1 (11741424_a_at) / RFU LOC101060620 /// MAPK8IP1 (11723275_at) / Fold change /veh LOC101060620 /// MAPK8IP1 (11723275_at) / RFU SPTSSB (11747773_x_at) / Fold change /veh SPTSSB (11747773_x_at) / RFU PRSS12 (11739890_at) / Fold change /veh PRSS12 (11739890_at) / RFU BIN1 (11741810_x_at) / Fold change /veh BIN1 (11741810_x_at) / RFU WNT11 (11732464_a_at) / Fold change /veh WNT11 (11732464_a_at) / RFU C10orf10 (11716521_a_at) / Fold change /veh C10orf10 (11716521_a_at) / RFU C5orf56 (11738089_at) / Fold change /veh C5orf56 (11738089_at) / RFU CYB561 (11721691_x_at) / Fold change /veh CYB561 (11721691_x_at) / RFU ANKRD19P (11752326_a_at) / Fold change /veh ANKRD19P (11752326_a_at) / RFU OR2T12 /// OR2T33 /// OR2T8 (11738714_s_at) / Fold change /veh OR2T12 /// OR2T33 /// OR2T8 (11738714_s_at) / RFU VCAN (11748164_a_at) / Fold change /veh VCAN (11748164_a_at) / RFU JSRP1 (11732532_at) / Fold change /veh JSRP1 (11732532_at) / RFU KRTAP10-11 (11738290_x_at) / Fold change /veh KRTAP10-11 (11738290_x_at) / RFU MYO3A (11730013_a_at) / Fold change /veh MYO3A (11730013_a_at) / RFU EBF3 (11725865_a_at) / Fold change /veh EBF3 (11725865_a_at) / RFU CAMK2N1 (11719241_x_at) / Fold change /veh CAMK2N1 (11719241_x_at) / RFU C5orf56 (11738088_a_at) / Fold change /veh C5orf56 (11738088_a_at) / RFU OLFML3 (11715873_a_at) / Fold change /veh OLFML3 (11715873_a_at) / RFU LOC100653217 /// NTM (11731650_a_at) / Fold change /veh LOC100653217 /// NTM (11731650_a_at) / RFU MAPK11 (11762145_a_at) / Fold change /veh MAPK11 (11762145_a_at) / RFU FIZ1 (11724087_x_at) / Fold change /veh FIZ1 (11724087_x_at) / RFU OASL (11726364_x_at) / Fold change /veh OASL (11726364_x_at) / RFU SOX15 (11748057_x_at) / Fold change /veh SOX15 (11748057_x_at) / RFU CD79A (11719716_a_at) / Fold change /veh CD79A (11719716_a_at) / RFU HIST1H1D (11736915_at) / Fold change /veh HIST1H1D (11736915_at) / RFU CASKIN2 (11723855_a_at) / Fold change /veh CASKIN2 (11723855_a_at) / RFU LOC730098 (11760151_x_at) / Fold change /veh LOC730098 (11760151_x_at) / RFU OR4N2 (11742367_at) / Fold change /veh OR4N2 (11742367_at) / RFU PRRT2 (11749266_a_at) / Fold change /veh PRRT2 (11749266_a_at) / RFU SNX32 (11753110_a_at) / Fold change /veh SNX32 (11753110_a_at) / RFU CDHR5 (11726645_a_at) / Fold change /veh CDHR5 (11726645_a_at) / RFU RCAN1 (11760418_a_at) / Fold change /veh RCAN1 (11760418_a_at) / RFU FAM167A (11723789_a_at) / Fold change /veh FAM167A (11723789_a_at) / RFU FAM26E (11764081_at) / Fold change /veh FAM26E (11764081_at) / RFU ISYNA1 (11749810_s_at) / Fold change /veh ISYNA1 (11749810_s_at) / RFU ACY1 (11761880_at) / Fold change /veh ACY1 (11761880_at) / RFU 11764098_at / Fold change /veh 11764098_at / RFU SAMD14 (11745864_x_at) / Fold change /veh SAMD14 (11745864_x_at) / RFU NPB (11741838_a_at) / Fold change /veh NPB (11741838_a_at) / RFU TMPRSS6 (11731388_a_at) / Fold change /veh TMPRSS6 (11731388_a_at) / RFU KRTAP10-2 (11738614_at) / Fold change /veh KRTAP10-2 (11738614_at) / RFU ARHGAP8 /// PRR5-ARHGAP8 (11727945_x_at) / Fold change /veh ARHGAP8 /// PRR5-ARHGAP8 (11727945_x_at) / RFU KRTAP5-7 /// NADSYN1 (11734609_at) / Fold change /veh KRTAP5-7 /// NADSYN1 (11734609_at) / RFU RASL12 (11751679_a_at) / Fold change /veh RASL12 (11751679_a_at) / RFU CDKN2B (11736163_a_at) / Fold change /veh CDKN2B (11736163_a_at) / RFU PRF1 (11729649_at) / Fold change /veh PRF1 (11729649_at) / RFU, ZNF638 /// ZNF638-IT1 / Fold change vs veh, ZNF638 /// ZNF638-IT1 / RFU, PANK3 / Fold change vs veh, PANK3 / RFU, SH3YL1 / Fold change vs veh, SH3YL1 / RFU, ZEB2 / Fold change vs veh, ZEB2 / RFU, NRIP1 / Fold change vs veh, NRIP1 / RFU, PTTG1IP / Fold change vs veh, PTTG1IP / RFU, CAPN2 / Fold change vs veh, CAPN2 / RFU, MED14 / Fold change vs veh, MED14 / RFU, SNORA58 / Fold change vs veh, SNORA58 / RFU, C1orf63 / Fold change vs veh, C1orf63 / RFU, LRRFIP1 / Fold change vs veh, LRRFIP1 / RFU, NDUFAF7 / Fold change vs veh, NDUFAF7 / RFU, SLC12A2 / Fold change vs veh, SLC12A2 / RFU, IBTK / Fold change vs veh, IBTK / RFU, ESF1 / Fold change vs veh, ESF1 / Fold change vs veh, TMEM50B / RFU, TAOK1 / Fold change vs veh, TAOK1 / RFU, ACBD3 / Fold change vs veh, ACBD3 / RFU, TMA16 / Fold change vs veh, TMA16 / RFU, RWDD3 / Fold change vs veh, RWDD3 / RFU, BCAT1 / Fold change vs veh, BCAT1 / RFU, EDEM3 / Fold change vs veh, EDEM3 / RFU, TMEM33 / Fold change vs veh, TMEM33 / RFU, WDR75 / Fold change vs veh, WDR75 / RFU, AHCTF1 / Fold change vs veh, AHCTF1 / RFU, TFRC / Fold change vs veh, TFRC / RFU, ZDHHC17 / Fold change vs veh, ZDHHC17 / RFU, NOM1 / Fold change vs veh, NOM1 / RFU, ARL8B / Fold change vs veh, ARL8B / RFU, ZBTB11 / Fold change vs veh, ZBTB11 / RFU, TAMM41 / Fold change vs veh, TAMM41 / RFU, KIAA1704 /// LOC100996395 / Fold change vs veh, KIAA1704 /// LOC100996395 / RFU, ING1 / Fold change vs veh, ING1 / RFU, TRMT61B / Fold change vs veh, TRMT61B / RFU, FUBP3 / Fold change vs veh, FUBP3 / RFU, TP53 / Fold change vs veh, TP53 / RFU, TNKS2 / Fold change vs veh, TNKS2 / RFU, ZFP14 / Fold change vs veh, ZFP14 / RFU, ACTR2 / Fold change vs veh, ACTR2 / RFU, PPP3R1 / Fold change vs veh, PPP3R1 / RFU, PIK3R1 / Fold change vs veh, PIK3R1 / RFU, HNRNPA1 / Fold change vs veh, HNRNPA1 / RFU, RNF170 / Fold change vs veh, RNF170 / RFU, ZNF28 / Fold change vs veh, ZNF28 / RFU, RNGTT / Fold change vs veh, RNGTT / RFU, OGT / Fold change vs veh, OGT / RFU, BRD1 / Fold change vs veh, BRD1 / RFU, MARS / Fold change vs veh, MARS / RFU, ZNF655 / Fold change vs veh, ZNF655 / RFU, FAHD1 / Fold change vs veh, FAHD1 / RFU, BDP1 / Fold change vs veh, BDP1 / RFU, LRRCC1 / Fold change vs veh, LRRCC1 / RFU, ARID1A / Fold change vs veh, ARID1A / RFU, ZNF146 / Fold change vs veh, ZNF146 / RFU, ZNF330 / Fold change vs veh, ZNF330 / RFU, GPN3 / Fold change vs veh, GPN3 / RFU, C9orf123 / Fold change vs veh, C9orf123 / RFU, N4BP2L2 / Fold change vs veh, N4BP2L2 / RFU, ARFIP1 / Fold change vs veh, ARFIP1 / RFU, FAM179B / Fold change vs veh, FAM179B / RFU, BCL10 / Fold change vs veh, BCL10 / RFU, UHRF1BP1L / Fold change vs veh, UHRF1BP1L / RFU, BET1 / Fold change vs veh, BET1 / RFU, CNOT2 / Fold change vs veh, CNOT2 / RFU, ZNF268 / Fold change vs veh, ZNF268 / Fold change vs veh, ZNF507 / RFU, DGCR2 / Fold change vs veh, DGCR2 / RFU, WDSUB1 / Fold change vs veh, WDSUB1 / Fold change vs veh, HSP90B1 /// MIR3652 / RFU, ADSS / Fold change vs veh, ADSS / RFU, GK / Fold change vs veh, GK / RFU, ZNF148 / Fold change vs veh, ZNF148 / RFU, TAF9 / Fold change vs veh, TAF9 / RFU, SLC1A5 / Fold change vs veh, SLC1A5 / RFU, SLMO2 / Fold change vs veh, SLMO2 / RFU, ABCC4 / Fold change vs veh, ABCC4 / RFU, LOC101060439 /// RAP1B / Fold change vs veh, LOC101060439 /// RAP1B / RFU, RFX7 / Fold change vs veh, RFX7 / RFU, GTPBP10 / Fold change vs veh, GTPBP10 / RFU, CNEP1R1 / Fold change vs veh, CNEP1R1 / RFU, BIVM-ERCC5 /// ERCC5 / Fold change vs veh, BIVM-ERCC5 /// ERCC5 / RFU, ILF3 / Fold change vs veh, ILF3 / RFU 11762660_at / Fold change /veh 11762660_at / RFU VCAN (11757783_s_at) / Fold change /veh VCAN (11757783_s_at) / RFU DDX43 (11728927_at) / Fold change /veh DDX43 (11728927_at) / RFU KRT8 (11758188_x_at) / Fold change /veh KRT8 (11758188_x_at) / RFU NKD1 (11759106_at) / Fold change /veh NKD1 (11759106_at) / RFU SRD5A1 (11742802_a_at) / Fold change /veh SRD5A1 (11742802_a_at) / RFU TPSAB1 /// TPSB2 (11721975_s_at) / Fold change /veh TPSAB1 /// TPSB2 (11721975_s_at) / RFU GSTM3 (11746129_a_at) / Fold change /veh GSTM3 (11746129_a_at) / RFU IL23R (11737362_x_at) / Fold change /veh IL23R (11737362_x_at) / RFU TMEM51 (11727254_a_at) / Fold change /veh TMEM51 (11727254_a_at) / RFU PIWIL2 (11732686_x_at) / Fold change /veh PIWIL2 (11732686_x_at) / RFU ORM1 (11744905_x_at) / Fold change /veh ORM1 (11744905_x_at) / RFU CCDC152 (11743942_at) / Fold change /veh CCDC152 (11743942_at) / RFU ECM1 (11717891_a_at) / Fold change /veh ECM1 (11717891_a_at) / RFU IL23R (11748794_a_at) / Fold change /veh IL23R (11748794_a_at) / RFU TNFAIP8L3 (11732012_x_at) / Fold change /veh TNFAIP8L3 (11732012_x_at) / RFU MBOAT4 (11741988_at) / Fold change /veh MBOAT4 (11741988_at) / RFU 11764193_at / Fold change /veh 11764193_at / RFU TMEM53 (11763286_at) / Fold change /veh TMEM53 (11763286_at) / RFU MAGEB2 (11727129_at) / Fold change /veh MAGEB2 (11727129_at) / RFU TMEM200A (11744735_a_at) / Fold change /veh TMEM200A (11744735_a_at) / RFU CCDC152 (11751479_a_at) / Fold change /veh CCDC152 (11751479_a_at) / RFU FAM211A (11726209_a_at) / Fold change /veh FAM211A (11726209_a_at) / RFU RGS16 (11746705_a_at) / Fold change /veh RGS16 (11746705_a_at) / RFU VCAN (11755009_s_at) / Fold change /veh VCAN (11755009_s_at) / RFU RHOB (11743442_s_at) / Fold change /veh RHOB (11743442_s_at) / RFU RGS16 (11720943_a_at) / Fold change /veh RGS16 (11720943_a_at) / RFU RGS16 (11720944_at) / Fold change /veh RGS16 (11720944_at) / RFU, VPS4B / Fold change vs veh, VPS4B / RFU, CREB1 / Fold change vs veh, CREB1 / RFU, DNAJC13 / Fold change vs veh, DNAJC13 / RFU, GNAQ / Fold change vs veh, GNAQ / RFU, CDK5R1 / Fold change vs veh, CDK5R1 / RFU, ZRANB3 / Fold change vs veh, ZRANB3 / RFU, CUL4A / Fold change vs veh, CUL4A / RFU, CCNY / Fold change vs veh, CCNY / RFU, UFL1 / Fold change vs veh, UFL1 / RFU, COG3 / Fold change vs veh, COG3 / RFU, DIAPH2 / Fold change vs veh, DIAPH2 / RFU, SKA2 / Fold change vs veh, SKA2 / RFU, AFF3 / Fold change vs veh, AFF3 / RFU, LMF1 / Fold change vs veh, LMF1 / RFU, IPO11 / Fold change vs veh, IPO11 / RFU, DFFB / Fold change vs veh, DFFB / RFU, FOXP1 / Fold change vs veh, FOXP1 / RFU, CARD8 / Fold change vs veh, CARD8 / RFU, STRN3 / Fold change vs veh, STRN3 / RFU, ADK / Fold change vs veh, ADK / RFU, RASSF2 / Fold change vs veh, RASSF2 / RFU, WIPF1 / Fold change vs veh, WIPF1 / RFU, LARP1B / Fold change vs veh, LARP1B / RFU, RASA1 / Fold change vs veh, RASA1 / RFU, RB1 / Fold change vs veh, RB1 / RFU, PPFIA1 / Fold change vs veh, PPFIA1 / RFU, MAT2A / Fold change vs veh, MAT2A / RFU, CCT5 / Fold change vs veh, CCT5 / RFU, WDR92 / Fold change vs veh, WDR92 / RFU, CUX1 / Fold change vs veh, CUX1 / RFU, TTC7A / Fold change vs veh, TTC7A / RFU, TMEM135 / Fold change vs veh, TMEM135 / RFU, DEPTOR / Fold change vs veh, DEPTOR / RFU, CPM / Fold change vs veh, CPM / RFU, DNAJB6 / Fold change vs veh, DNAJB6 / RFU, CACNA2D3 / Fold change vs veh, CACNA2D3 / RFU, DTX4 / Fold change vs veh, DTX4 / RFU, TFCP2 / Fold change vs veh, TFCP2 / RFU, GMCL1 /// GMCL1P1 / Fold change vs veh, GMCL1 /// GMCL1P1 / RFU, AEBP2 / Fold change vs veh, AEBP2 / RFU, SNHG1 /// SNORD22 /// SNORD25 /// SNORD26 /// SNORD27 /// SNORD28 /// SNORD29 /// SNORD31 / Fold change vs veh, SNHG1 /// SNORD22 /// SNORD25 /// SNORD26 /// SNORD27 /// SNORD28 /// SNORD29 /// SNORD31 / Fold change (Aza/veh), C12orf56 (ProbeSet 11735607_a_at) / Fold change (ACY-1035/veh), C12orf56 (ProbeSet 11735607_a_at) / Fold change (Aza/veh), FGFR1OP (ProbeSet 11751329_s_at) / Fold change (ACY-1035/veh), FGFR1OP (ProbeSet 11751329_s_at) / Fold change (Aza/veh), VPS36 (ProbeSet 11739960_a_at) / Fold change (ACY-1035/veh), VPS36 (ProbeSet 11739960_a_at) / RFU SYPL1 (11715823_x_at) / Fold change /veh SYPL1 (11715823_x_at) / RFU IGFBP7 (11715501_s_at) / Fold change /veh IGFBP7 (11715501_s_at) / RFU REEP3 (11722064_at) / Fold change /veh REEP3 (11722064_at) / RFU IGLL1 (11728026_x_at) / Fold change /veh IGLL1 (11728026_x_at): dose or concentration left out as unconfirmed
Details: MV-4-11 cells, 48 hours

Nc1ccc(-c2cccs2)cc1NC(=O)c1ccc2c(c1)cc(C1CC1)n2CCN1CCOCC1 [ACY-1035]
RFU GIMAP4 (11747438_a_at): 6.21 RFU
